Measurements taken from ChEMBL document CHEMBL1201862, “PubChem BioAssay data set” (2004).
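The compound was tested at five concentrations on cells cultured in 96-well plates, with a 48-hour exposure period. The concentration for 50% growth inhibition is given as GI50.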 Active and inactive are the calls of the source. Cut-off read from the data, not from the text of the source: active = GI50 up to about 1.1 µM and inactive = higher.

Experiments:
Assay in all cases: NCI-60 cell line screen, 48 h
T47D = system: T47D
UACC-62 = system: UACC-62
SW-620 = system: SW-620
UO-31 = system: UO-31
IGROV-1 = system: IGROV-1
SK-MEL-28 = system: SK-MEL-28
HCT-116 = system: HCT-116
A549 = system: A549
TK-10 = system: TK-10
UACC-257 = system: UACC-257
SF-268 = system: SF-268
OVCAR-3 = system: OVCAR-3
MDA-MB-231 = system: MDA-MB-231
Hs-578T = system: Hs-578T
U-251 = system: U-251
MDA-N = system: MDA-N
CAKI-1 = system: CAKI-1
M14 = system: M14
BT-549 = system: BT-549
MCF7 = system: MCF7

| SMILES | GI50 (T47D) | GI50 (UACC-62) | GI50 (SW-620) | GI50 (UO-31) | GI50 (IGROV-1) | GI50 (SK-MEL-28) | GI50 (HCT-116) | GI50 (A549) | GI50 (TK-10) | GI50 (UACC-257) | GI50 (SF-268) | GI50 (OVCAR-3) | GI50 (MDA-MB-231) | GI50 (Hs-578T) | GI50 (U-251) | GI50 (MDA-N) | GI50 (CAKI-1) | GI50 (M14) | GI50 (BT-549) | GI50 (MCF7) |
| --- | --- | --- | --- | --- | --- | --- | --- | --- | --- | --- | --- | --- | --- | --- | --- | --- | --- | --- | --- | --- |
| Cc1cccc(-c2cc(O)c3c(C)cc(C)nc3n2)c1 | 3.96 µM (inactive) | 4.14 µM (inactive) | 0.792 µM (active) | 9.91 µM (inactive) | 4.06 µM (inactive) | 13.1 µM (inactive) | 2.04 µM (inactive) | 3.66 µM (inactive) | 16.1 µM (inactive) | 7.87 µM (inactive) | 6.21 µM (inactive) | 1.43 µM (inactive) | 5.7 µM (inactive) | 2.52 µM (inactive) | 2.79 µM (inactive) | 0.313 µM (active) | 5.66 µM (inactive) | 2.29 µM (inactive) | 3.73 µM (inactive) | 0.962 µM (active) |
| Nc1nc(-c2ccccc2)c(-c2ccccc2)c(-c2nc(N)nc(-c3ccccc3)c2-c2ccccc2)n1 | 49.7 µM (inactive) | 85.3 µM (inactive) | > 100 µM (inactive) | > 100 µM (inactive) | > 100 µM (inactive) | > 100 µM (inactive) | > 100 µM (inactive) | > 100 µM (inactive) | > 100 µM (inactive) | > 100 µM (inactive) | > 100 µM (inactive) | 83.2 µM (inactive) | > 100 µM (inactive) | > 100 µM (inactive) | > 100 µM (inactive) | 75.7 µM (inactive) | > 100 µM (inactive) | > 100 µM (inactive) | > 100 µM (inactive) | 49.4 µM (inactive) |
| O=C1Nc2ccccc2S/C1=C\c1ccccc1C(F)(F)F | > 100 µM (inactive) | > 100 µM (inactive) | > 100 µM (inactive) | > 100 µM (inactive) | 29 µM (inactive) | > 100 µM (inactive) | > 100 µM (inactive) | > 100 µM (inactive) | 40.6 µM (inactive) | > 100 µM (inactive) | > 100 µM (inactive) | > 100 µM (inactive) | > 100 µM (inactive) | 51.9 µM (inactive) | 71.9 µM (inactive) | > 100 µM (inactive) | 68.9 µM (inactive) | > 100 µM (inactive) | 59.7 µM (inactive) | 98.6 µM (inactive) |
| Cn1c2ccccc2c2[nH]c3ccccc3c(=O)c21 | 43 µM (inactive) | > 100 µM (inactive) | 88.3 µM (inactive) | > 100 µM (inactive) | > 100 µM (inactive) | > 100 µM (inactive) | 53.3 µM (inactive) | > 100 µM (inactive) | > 100 µM (inactive) | > 100 µM (inactive) | > 100 µM (inactive) | > 100 µM (inactive) | > 100 µM (inactive) | > 100 µM (inactive) | > 100 µM (inactive) | > 100 µM (inactive) | > 100 µM (inactive) | > 100 µM (inactive) | > 100 µM (inactive) | > 100 µM (inactive) |
| O=S(=O)(O)c1ccc(/N=N/c2ccc(/N=N/c3c(O)ccc4ccccc34)cc2)cc1 | 97.9 µM (inactive) | > 100 µM (inactive) | > 100 µM (inactive) | > 100 µM (inactive) | 38.6 µM (inactive) | > 100 µM (inactive) | > 100 µM (inactive) | > 100 µM (inactive) | > 100 µM (inactive) | > 100 µM (inactive) | > 100 µM (inactive) | > 100 µM (inactive) | > 100 µM (inactive) | > 100 µM (inactive) | > 100 µM (inactive) | > 100 µM (inactive) | > 100 µM (inactive) | > 100 µM (inactive) | > 100 µM (inactive) | > 100 µM (inactive) |
| O=C(c1cc2ccccc2[nH]1)N1C2CCC1CN(CCOC(c1ccc(F)cc1)c1ccc(F)cc1)CC2 (stereo not given) | 5.28 µM (inactive) | 52 µM (inactive) | > 100 µM (inactive) | 3.22 µM (inactive) | 2.26 µM (inactive) | > 100 µM (inactive) | 5.09 µM (inactive) | 34.9 µM (inactive) | > 100 µM (inactive) | 12.5 µM (inactive) | 8.28 µM (inactive) | 9.02 µM (inactive) | 9.2 µM (inactive) | > 100 µM (inactive) | 3.99 µM (inactive) | > 100 µM (inactive) | 6.81 µM (inactive) | > 100 µM (inactive) | > 100 µM (inactive) | 7.06 µM (inactive) |
| COc1cc(N(CCC#N)CCC#N)ccc1C(/N=N/c1cccc(C)c1)=N\NC(=O)c1ccc(C)cc1 | 66.2 µM (inactive) | 37.2 µM (inactive) | > 100 µM (inactive) | > 100 µM (inactive) | > 100 µM (inactive) | > 100 µM (inactive) | > 100 µM (inactive) | > 100 µM (inactive) | 57.7 µM (inactive) | > 100 µM (inactive) | 35.5 µM (inactive) | > 100 µM (inactive) | > 100 µM (inactive) | > 100 µM (inactive) | 45.8 µM (inactive) | > 100 µM (inactive) | > 100 µM (inactive) | > 100 µM (inactive) | > 100 µM (inactive) | 29.1 µM (inactive) |
| CCOC(=O)CC1(Cc2ccc(OCc3ccccc3)cc2)C(=O)OC(c2ccccc2)N1C(=O)c1ccccc1 (stereo not given) | > 100 µM (inactive) | > 100 µM (inactive) | > 100 µM (inactive) | 45.5 µM (inactive) | > 100 µM (inactive) | > 100 µM (inactive) | > 100 µM (inactive) | > 100 µM (inactive) | > 100 µM (inactive) | > 100 µM (inactive) | > 100 µM (inactive) | > 100 µM (inactive) | 68.9 µM (inactive) | > 100 µM (inactive) | > 100 µM (inactive) | > 100 µM (inactive) | > 100 µM (inactive) | > 100 µM (inactive) | > 100 µM (inactive) | > 100 µM (inactive) |
| CC(C)(C)c1cc(C2=NNC(c3ccccc3)C2)cc(C(C)(C)C)c1O (stereo not given) | 10.2 µM (inactive) | 13.5 µM (inactive) | 15.7 µM (inactive) | 15 µM (inactive) | 15.7 µM (inactive) | 15.9 µM (inactive) | 14.2 µM (inactive) | 15.3 µM (inactive) | 15.9 µM (inactive) | 14.3 µM (inactive) | 17 µM (inactive) | 3.88 µM (inactive) | 14.2 µM (inactive) | 19.1 µM (inactive) | 15.5 µM (inactive) | 12.6 µM (inactive) | 12.9 µM (inactive) | 17.2 µM (inactive) | 17.1 µM (inactive) | 13.8 µM (inactive) |
| O=P1(c2ccccc2)C(c2ccccc2)=CC=C1c1ccccc1 | 8.95 µM (inactive) | 18.8 µM (inactive) | 26.1 µM (inactive) | 13.7 µM (inactive) | 39.8 µM (inactive) | 58.1 µM (inactive) | 9.25 µM (inactive) | 22.6 µM (inactive) | 13.2 µM (inactive) | 22.5 µM (inactive) | 24.5 µM (inactive) | 12.2 µM (inactive) | 36.7 µM (inactive) | 37.8 µM (inactive) | 13.3 µM (inactive) | 10.8 µM (inactive) | 50.7 µM (inactive) | 18.4 µM (inactive) | 18.8 µM (inactive) | 10.4 µM (inactive) |
| CC(C)N/C(=N\C#N)NS(=O)(=O)c1cnccc1NC1CCCCCCC1 | > 100 µM (inactive) | > 100 µM (inactive) | > 100 µM (inactive) | > 100 µM (inactive) | > 100 µM (inactive) | > 100 µM (inactive) | > 100 µM (inactive) | > 100 µM (inactive) | > 100 µM (inactive) | > 100 µM (inactive) | > 100 µM (inactive) | > 100 µM (inactive) | > 100 µM (inactive) | > 100 µM (inactive) | > 100 µM (inactive) | > 100 µM (inactive) | > 100 µM (inactive) | > 100 µM (inactive) | > 100 µM (inactive) | > 100 µM (inactive) |
| C/C(=N/NC(=S)Nc1ccc(C)cc1)c1ccccn1 | 0.049 µM (active) | 0.105 µM (active) | < 0.0164 µM (active) | 0.266 µM (active) | < 0.0155 µM (active) | 2.1 µM (inactive) | < 0.0146 µM (active) | 0.5 µM (active) | 0.19 µM (active) | < 0.0163 µM (active) | 0.114 µM (active) | 0.0179 µM (active) | < 0.0154 µM (active) | 0.859 µM (active) | 0.125 µM (active) | 1.1 µM (active) | 0.0968 µM (active) | 0.0446 µM (active) | 4.38 µM (inactive) | 0.0146 µM (active) |
| CC(C)C1CC(CO)(CNc2nc(N)nc(Cl)c2C=O)C1 (stereo not given) | 6.01 µM (inactive) | 2 µM (inactive) | 6.15 µM (inactive) | 6.27 µM (inactive) | 1.89 µM (inactive) | 1.88 µM (inactive) | 2.84 µM (inactive) | 12.9 µM (inactive) | > 66.8 µM (inactive) | 2.49 µM (inactive) | 4.79 µM (inactive) | 3.47 µM (inactive) | 2.45 µM (inactive) | 4.38 µM (inactive) | 3.35 µM (inactive) | 2.85 µM (inactive) | 2.17 µM (inactive) | 1.77 µM (inactive) | 11.4 µM (inactive) | 10.3 µM (inactive) |
| Cc1nnc(N2C(=O)C(=Cc3ccc(Cl)cc3)N=C2c2ccc(Cl)cc2)nc1/C=C\c1ccc(N(C)C)cc1 | > 100 µM (inactive) | > 100 µM (inactive) | > 100 µM (inactive) | 50.8 µM (inactive) | > 100 µM (inactive) | > 100 µM (inactive) | > 100 µM (inactive) | > 100 µM (inactive) | > 100 µM (inactive) | > 100 µM (inactive) | > 100 µM (inactive) | > 100 µM (inactive) | > 100 µM (inactive) | > 100 µM (inactive) | > 100 µM (inactive) | 73.1 µM (inactive) | > 100 µM (inactive) | 83.6 µM (inactive) | > 100 µM (inactive) | > 100 µM (inactive) |
